Each compound was assayed against T1, human CaSR (Homo sapiens, UniProt P41180) (assay: Functional whole cell assay (modulation of human CaSR), IP1 accumulation in CHO-K1 cells). Conditions: CHO-K1 cells stably expressing human CaSR, final Ca2+ 1.9 mM, IP1 (IP-One htrf).
T1 sequence (P41180 20-1078): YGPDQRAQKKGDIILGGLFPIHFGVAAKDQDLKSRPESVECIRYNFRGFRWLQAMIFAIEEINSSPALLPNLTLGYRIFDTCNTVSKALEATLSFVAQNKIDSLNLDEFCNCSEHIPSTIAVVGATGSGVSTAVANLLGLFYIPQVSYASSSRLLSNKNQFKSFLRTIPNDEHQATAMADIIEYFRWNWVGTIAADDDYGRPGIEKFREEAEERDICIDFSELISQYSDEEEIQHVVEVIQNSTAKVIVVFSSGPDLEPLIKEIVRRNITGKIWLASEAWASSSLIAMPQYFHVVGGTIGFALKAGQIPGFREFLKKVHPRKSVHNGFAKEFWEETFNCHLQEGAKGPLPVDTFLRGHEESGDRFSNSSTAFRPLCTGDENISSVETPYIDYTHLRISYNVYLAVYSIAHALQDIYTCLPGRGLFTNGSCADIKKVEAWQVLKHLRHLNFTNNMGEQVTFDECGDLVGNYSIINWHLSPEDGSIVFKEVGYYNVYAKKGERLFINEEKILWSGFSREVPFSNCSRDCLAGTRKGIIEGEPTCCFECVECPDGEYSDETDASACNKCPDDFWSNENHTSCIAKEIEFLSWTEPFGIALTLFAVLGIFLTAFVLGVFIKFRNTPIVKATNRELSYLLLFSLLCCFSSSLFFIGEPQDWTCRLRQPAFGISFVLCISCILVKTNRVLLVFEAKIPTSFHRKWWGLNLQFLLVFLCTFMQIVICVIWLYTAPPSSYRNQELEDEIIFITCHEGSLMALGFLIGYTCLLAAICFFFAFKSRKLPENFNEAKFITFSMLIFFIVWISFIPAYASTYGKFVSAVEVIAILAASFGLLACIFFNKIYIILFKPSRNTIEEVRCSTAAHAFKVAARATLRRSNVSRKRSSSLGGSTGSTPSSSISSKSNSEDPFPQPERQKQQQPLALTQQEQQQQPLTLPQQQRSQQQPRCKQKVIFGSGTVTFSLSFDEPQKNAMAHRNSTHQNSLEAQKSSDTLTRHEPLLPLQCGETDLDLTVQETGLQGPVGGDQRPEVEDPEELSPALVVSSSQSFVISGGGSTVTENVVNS
Format: cell-based
Excerpt: The assay investigates a compound's functional ability to act as a biological positive modulator on the human CaSR. Activation of the receptor expressed on CHO-K1 cells is detected through the G alpha q pathway, the activation of phospholipase C and the accumulation of intracellular inositol phosphate (IP) as described earlier [Sandrine Ferry, Bruno Chatel, Robert H. Dodd, Christine Lair, Danielle Gully, Jean-Pierre Maffrand, and Martial Ruat. Effects of Divalent Cations and of a Calcimimetic on Adrenocorticotropic Hormone Release in Pituitary Tumor Cells. Biological and Biophysical Research Comm., 238, 866-873 (1997)]. The human CaSR is stably expressed on a CHO-K1 cell clone, stimulated with a basal level of calcium and challenged with the tested compound. The level of IP1 is determined using the IP-One Terbium htrf kit (Cisbio, France). CHO-K1 cells not transfected with the CaSR fail to elicit an IP1 response upon calcium and/or compound stimulation.
The ORF coding for the human CaSR (genebank: NM_000388) was acquired from Invitrogen Corp, USA and subsequently cloned into the mammalian expression vector pCDA3.1.
CHO-K1 cells were transfected using Lipofectamine according to manufacturer's protocol (400.000 cells/well were seeded in a 6-well plate and transfected after 24 hours using 2 μg DNA and 5 μl lipofectamine). After another 24 hours the cells were detached, seeded and subjected to 1mg/ml of G-418. Following 7 days growth single clones were picked, the CaSR expression evaluated using the 5C10 antibody against CaSR, the clones with the highest expression were selected and tested for functional response. The preferred clone was cultured according to standard procedures described in ATCC (American Type Culture Collection) protocols for CHO-K1 with the addition of 500 μg/ml G-418.
On the assay day, cells were thawed, harvested and resuspended to 4*10^6 cells/ml in stimulation buffer (containing: Hepes 10mM, MgCl2 0.5mM, KCl 4.2 mM, NaCl 146 mM, glucose 5.5 mM, LiCl 50 mM, BSA 0.5% at pH 7.4). Ten μl cell solution was pipetted into wells of a white 384-well plate (Perkin Elmer Optiplate) containing 2 μl compound diluted in assay buffer (containing: Hepes 10 mM, MgCl2 0.5mM, KCl 4.2mM, NaCl 146mM, glucose 5.5 mM, LiCl 50 mM, CaCl2 11.4 mM at pH 7.4), resulting in a final Ca^2+ concentration of 1.9 mM. After compound stimulation for 1 hour at 37° C. and 15 min at room temperature, 10 ul of IP-One assay detection reagent (prepared as described by the IP-One assay kit manufacturer) was added and the plate was incubated for another 1 hour at room temperature. Finally the plate was read using a Perkin Elmer EnVision, according to the protocol supplied by the IP-One assay kit manufacturer. The FRET ratio was calculated by dividing the 665 nm emission signal with that of the 615 nm.
The molar concentration of a compound that produces 50% of the maximum agonistic response (the […] value) is calculated according to the equation “General sigmoidal curve with Hill slope, a to d” (Equation 1). This model describes a sigmoidal curve with an adjustable baseline. The equation can be used to fit curves where response is either increasing or decreasing with respect to the independent variable, X. […]
y=(a−d)/(1+(x/c)̂b)+d Equation 1. x=concentration of tested compound […]
a=min response as compound concentration approaches 0 d=max response as concentration of tested compound is increasing […]
b=Hill coefficient or curve slope
Assay results using compounds of the present invention indicate that compounds of the present invention are potent modulators of CaSR, thus making them potentially useful in the treatment of diseases related to kidneys or bones.

SMILES | EC50
C[C@@H](N[C@H]1CC[C@@H](c2ccc(CC(=O)NCCS(N)(=O)=O)cc2)C1)c1cccc2c1OCO2 [Compound 104, 2-[4-[(1R,3S)-3-[[(1R)-1-(1,3-Benzodioxol-4-yl)ethyl]amino]-cyclo-pentyl]-phenyl]-N-(2-sulfamoylethyl)acetamide] | < 200 nM
CCOc1cccc([C@@H](C)N[C@H]2CC[C@@H](c3ccc(CC(=O)NCCS(N)(=O)=O)cc3)C2)c1 [Compound 106, 2-[4-[(1R,3S)-3-[[(1R)-1-(3-Ethoxyphenyl)ethyl]amino]cyclopentyl]phenyl]-N-(2-sulfamoylethyl)acetamide] | < 200 nM
COc1cc([C@@H](C)N[C@H]2CC[C@@H](c3ccc(CC(=O)N4CC(O)C4)cc3)C2)ccc1F [Compound 109, 2-[4-[(1R,3S)-3-[[(1R)-1-(4-Fluoro-3-methoxy-phenyl)ethyl]amino]-cyclopentyl]phenyl]-1-(3-hydroxyazetidin-1-yl)ethanone] | < 200 nM
COc1cc([C@@H](C)N[C@H]2CC[C@@H](c3ccc(CC(=O)N4CCCNCC4)cc3)C2)ccc1F [Compound 110, 1-(1,4-Diazepan-1-yl)-2-[4-[(1R,3S)-3-[[(1R)-1-(4-fluoro-3-methoxy-Phenyl)ethyl]amino]cyclopentyl]phenyl]ethanone] | < 200 nM
COc1cc([C@@H](C)N[C@H]2CC[C@@H](c3ccc(CC(=O)N4CCC(N)CC4)cc3)C2)ccc1F [Compound 112, 1-(4-Amino-1-piperidyl)-2-[4-[(1R,3S)-3-[[(1R)-1-(4-fluoro-3-methoxy-phenyl)ethyl]amino]cyclopentyl]phenyl]ethanone] | < 200 nM

Now from value to compound:

EC50 | SMILES
200 to 1000 nM | COc1cc([C@@H](C)N[C@H]2CC[C@@H](c3ccc(CC(=O)NCCNS(C)(=O)=O)cc3)C2)ccc1F [Compound 102, 2-[4-[(1R,3S)-3-[[(1R)-1-(4-Fluoro-3-methoxy-phenyl)ethyl]amino]-cyclopentyl]phenyl]-N-[2-(methanesulfonamido)ethyl]acetamide; formic acid]
< 200 nM | COc1cc([C@@H](C)N[C@H]2CC[C@@H](c3ccc(CC(=O)NCCS(N)(=O)=O)cc3)C2)ccc1F [Compound 103, 2-[4-[(1R,3S)-3-[[(1R)-1-(4-Fluoro-3-methoxy-phenyl)ethyl]amino]-cyclopentyl]phenyl]-N-(2-sulfamoylethyl)acetamide; formic acid]
< 200 nM | COc1cc([C@@H](C)N[C@H]2CC[C@@H](c3ccc(CC(=O)NCCNCCO)cc3)C2)ccc1F [Compound 108, 2-[4-[(1R,3S)-3-[[(1R)-1-(4-Fluoro-3-methoxy-phenyl)ethyl]amino]-cyclopentyl]phenyl]-N-[2-(2-hydroxyethylamino)ethyl]acetamide]
